Experiment: Partition coefficient (logP)
Details: octanol/water

| SMILES | logP |
| --- | --- |
| Clc1ccc(Cl)c(-c2ccccc2Cl)c1 | 5.6 |
| Clc1ccc(Cl)c(-c2cc(Cl)c(Cl)cc2Cl)c1 | 6.49 |
| Clc1cc(Cl)c(Cl)c(-c2c(Cl)c(Cl)cc(Cl)c2Cl)c1Cl | 7.15 |
| Clc1ccc(-c2ccc(Cl)cc2)cc1 | 5.58 |
| Clc1cc(-c2cc(Cl)c(Cl)c(Cl)c2)cc(Cl)c1Cl | 7.55 |
| Clc1ccc(-c2c(Cl)cc(Cl)c(Cl)c2Cl)c(Cl)c1Cl | 6.99 |
| Clc1c(Cl)c(Cl)c(-c2ccccc2)c(Cl)c1Cl | 6.52 |
| Clc1ccccc1-c1ccccc1Cl | 4.73 |
| Clc1cc(Cl)c(-c2cc(Cl)c(Cl)cc2Cl)cc1Cl [2,2',4,4',5,5'-HEXACHLOROBIPHENYL] | 6.8 |

Reference: ChEMBL document CHEMBL1135276, “Novel estimation of lipophilic behaviour of polychlorinated biphenyls” (Bioorg Med Chem Lett, 2002)
